Tests used:
[1] = molecular target: T1, NACHT, LRR and PYD domains-containing protein 3 (Mus musculus, UniProt Q8R4B8); assay: Inhibition of NLRP3 in mouse J774A.1 cells infected with FLA-ST assessed as inhibition of LPS- induced IL-1beta production by ELISA; type: cell-based, J774.A1
[2] = Cytotoxicity against human HEK293T cells assessed as reduction in cell viability at 24 hrs by CCK8 assay; type: cell-based, HEK-293T; conditions: read-out: TD50
[3] = Selectivity index, ratio of TC50 for cytotoxicity against human HEK293T cells to IC50 for inhibition of NLRP3 in mouse J774A.1 cells
[4] = molecular target: T1, NACHT, LRR and PYD domains-containing protein 3; assay: Inhibition of NLRP3 inflammasome activation in LPS/nigericin-treated mouse BMDM cells assessed as inhibition of LPS and nigericin-induced IL-1beta production pre-treated for 1 hr measured after 1 hr of stimulation by ELISA; type: cell-based

T1 sequence (Q8R4B8 whole entry, the tested form may be a part): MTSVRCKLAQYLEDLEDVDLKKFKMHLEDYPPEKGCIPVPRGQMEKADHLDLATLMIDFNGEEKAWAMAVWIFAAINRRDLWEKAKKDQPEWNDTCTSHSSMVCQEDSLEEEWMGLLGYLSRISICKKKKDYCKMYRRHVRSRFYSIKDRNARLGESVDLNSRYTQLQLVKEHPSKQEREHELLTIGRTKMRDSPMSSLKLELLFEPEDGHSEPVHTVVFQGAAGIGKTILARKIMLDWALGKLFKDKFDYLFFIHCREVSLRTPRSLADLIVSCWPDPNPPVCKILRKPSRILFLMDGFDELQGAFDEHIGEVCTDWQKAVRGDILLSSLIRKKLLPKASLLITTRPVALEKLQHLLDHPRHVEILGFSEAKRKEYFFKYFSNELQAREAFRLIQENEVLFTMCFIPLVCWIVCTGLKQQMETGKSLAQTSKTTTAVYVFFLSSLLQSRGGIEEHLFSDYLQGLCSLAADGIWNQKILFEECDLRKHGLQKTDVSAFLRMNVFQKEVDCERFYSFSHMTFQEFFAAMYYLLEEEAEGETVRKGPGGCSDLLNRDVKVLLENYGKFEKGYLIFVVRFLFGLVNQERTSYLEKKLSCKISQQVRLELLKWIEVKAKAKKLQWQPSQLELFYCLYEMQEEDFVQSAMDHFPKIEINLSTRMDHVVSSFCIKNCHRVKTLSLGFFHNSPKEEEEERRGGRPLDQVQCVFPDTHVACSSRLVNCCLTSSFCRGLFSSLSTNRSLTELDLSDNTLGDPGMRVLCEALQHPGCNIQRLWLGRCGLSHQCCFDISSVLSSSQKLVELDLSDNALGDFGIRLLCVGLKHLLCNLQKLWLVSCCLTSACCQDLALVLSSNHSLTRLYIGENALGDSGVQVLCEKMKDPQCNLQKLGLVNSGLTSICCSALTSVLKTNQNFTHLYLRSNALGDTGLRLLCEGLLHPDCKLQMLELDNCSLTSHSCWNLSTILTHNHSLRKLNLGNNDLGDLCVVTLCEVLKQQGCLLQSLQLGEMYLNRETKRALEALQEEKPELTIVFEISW

For `CSc1ccc(C(=O)/C=C/c2ccc(C(=O)O)cc2)cc1`, the IC50 [1] was 3.5 µM.

`CSc1ccc(C(=O)/C=C/c2cc(C)c(OCCCCC(=O)O)c(C)c2)cc1` gave an IC50 [1] of 28.9 µM.

`Cc1cc(/C=C/C(=O)c2ccc(NS(=O)(=O)c3ccc(F)cc3)cc2)cc(C)c1O` gave an IC50 [1] of 5 µM.

Compound `Cc1cc(/C=C/C(=O)c2ccc(I)cc2)cc(C)c1O` has an IC50 [1] of 28.6 µM.

With `COc1cc(/C=C/C(=O)c2ccc(SC)cc2)cc(OC)c1O` the IC50 [1] was over 40 µM.

With `CSc1ccc(C(=O)/C=C/c2ccc3c(c2)CCO3)cc1` the IC50 [1] was 24.2 µM.

In the case of `CSc1ccc(C(=O)/C=C/c2ccc(O)c(C)c2)cc1`, the IC50 [1] is reported as 8.8 µM.

Compound `CSc1ccc(C(=O)/C=C/c2cc(C)c(OCCCN3CCOCC3)c(C)c2)cc1` has an IC50 [1] of 21.9 µM.

For `CCCNC(=O)Oc1c(C)cc(/C=C/C(=O)c2ccc(SC)cc2)cc1C`, the IC50 [1] was 22.3 µM.

For `CSc1ccc(C(=O)/C=C/c2ccc(O)cc2)cc1`, the IC50 [1] was 14.6 µM.

`CSc1ccc(C(=O)/C=C/c2ccc(O)c(F)c2)cc1` showed an IC50 [1] of 10.7 µM.

For `Cc1cc(/C=C/C(=O)c2ccc(NS(=O)(=O)NC(C)C)cc2)cc(C)c1O`, the IC50 [1] was 3.4 µM.

`CCc1cc(/C=C/C(=O)c2ccc(SC)cc2)cc(CC)c1O` showed an IC50 [1] of 11.7 µM.

For `COc1c(C)cc(/C=C/C(=O)c2ccc(NC(=O)NC(C)C)cc2)cc1C`, the IC50 [1] was 33.2 µM.

With `CCN(CC)C(=S)SSC(=S)N(CC)CC` [DISULFIRAM] the IC50 [1] was 3 µM.

With `CSc1ccc(C(=O)/C=C/c2cc(C)c(OC(C)(C)C(=O)O)c(C)c2)cc1` [ELAFIBRANOR] the IC50 [1] was 39.6 µM, the CC50 at 24 h [2] was 142 µM and the “Selectivity Index” value [3] was 3.6.

`O=C(O)c1ccc(/C=C2\SC(=S)N(Cc3cccc(C(F)(F)F)c3)C2=O)cc1` gave an IC50 [4] of 1 µM.

`CSc1ccc(C(=O)/C=C/c2c(C)cc(O)cc2C)cc1` showed an IC50 [1] of over 40 µM.

For `COc1c(C)cc(/C=C/C(=O)c2ccc(N)cc2)cc1C`, the IC50 [1] was 5.7 µM.

Compound `Cc1cc(/C=C/C(=O)c2ccc(-c3cccs3)cc2)cc(C)c1O` has an IC50 [1] of over 40 µM.

Work on `COc1cc(/C=C/C(=O)c2ccc(SC)cc2)ccc1O` yielded an IC50 [1] of 10 µM.

— ChEMBL document CHEMBL4814056, “Discovery of chalcone analogues as novel NLRP3 inflammasome inhibitors with potent anti-inflammation activities” (Eur J Med Chem, 2021)
